# US8318812B2, “Therapeutic agents for the treatment of lymphoid malignancies” (The Ohio State University Research Foundation, priority 2006, dated 2012)
# Key:
# AML cell lines [1] = experiment: Cell cycle analysis (propidium iodide DNA content) in AML cell lines; format: cell-based; conditions: 1 uM and 10 uM, 48 hours
# Experimental: Cell suspensions were treated with vehicle control, 1 uM, and 10 uM FTY720 for 48 hours. After fixation in ethanol, samples were stained with propidium iodide, and assessed for DNA content. Percentage of cells in subG1, G1, S, and G2-M for each cell line are depicted (FIG. 11A) with representative plots below for MV411 (FIG. 11B). Although cell cycle arrest is not seen, induction of apoptosis is noted by the increased fraction of sub G1 with FTY720 treatment.
# Cyclin D1 [2] = experiment: Western blot of Cyclin D1 in primary MCL cells; format: cell-based, Human
# Experimental: (§1) Primary MCL cells were isolated from PBMC (with informed patient consent under a protocol approved by IRB) as described before. All the MCL patients were identified as outlined by the World Health Organization (WHO) classification. Human mantle cell lymphoma patient cell lines (Mino and Jeko) were obtained from Dr. Raymond Lai. Primary cells or MCL cell lines were incubated in RPMI 1640 media, supplemented with 10%-20% heat-inactivated fetal bovine serum, 2 mM L-glutamine and penicillin (100 U/mL)/streptomycin ([…]) at 37° C. in an atmosphere of 5% CO2. FTY720 was synthesized as previously described. Toxicity was determined by flow cytometry using Annexin-V-FITC and Propidium Iodide (PI) staining. Apoptotic cells were identified as Annexin-V+ and/or PI+ cells. Cells excluding both FITC and PI were considered viable. Western Blotting was performed as described previously using indicated antibodies. […]
# (§2) FTY720 induced apoptosis is associated with down-modulation of Cyclin D1 and Akt. […] To determine if the FTY720 induced apoptosis is mediated through modulation of these targets relevant to the pathogenesis of the disease, we evaluated the effect of FTY720 on levels of Cyclin D1, p-Akt and Akt proteins by Wester Blotting analysis using specific antibodies in primary MCL cells and cell lines. […]
# AML cell lines [3] = experiment: Annexin V/PI apoptosis assay in AML cell lines; format: cell-based; conditions: 48 hours
# Experimental: Cell cultures were exposed to vehicle control and increasing doses of FTY720 for 48 hours. Cells were then stained with Annexin V (AnnV) and propidium iodide (PI), and analyzed using routine flow cytometry. Percentage of viable cells (AnnV− PI−), cells undergoing apoptosis (AnnV+ PI−), and necrotic cells (AnnV+ PI+) are represented for each cell line studied in FIG. 10A.
# PP2A = PP2A activity (malachite green phosphatase assay) in lysates of CLL cells; format: cell-based, Human; conditions: 10 uM FTY720
# Experimental: PP2A Activity: The protein phosphatase activity of total cellular lysate was determined by measuring the generation of free PO4 from the threonine phosphopeptide using the malachite green-phosphate complex assay as described by the manufacturer (Upstate, Charlottesville, […].). Cell lysates were prepared in a low detergent lysis buffer (1% Nonidet P-40, 10 mM HEPES, 0.5M NaCl, 10% Glycerol, 1 mM PMSF, 5 mM Benzamidine, 10 μg/ml leupeptin). The phosphatase assay was performed in a PP2A-specific reaction buffer (Upstate) using 750 μM phosphopeptide substrate. After 30-min incubation at 30° C. malachite dye was added, and free phosphate was measured by optical density at 650 nm. To avoid variability among different immunoprecipitated samples, the phosphatase activities were normalized with the amount of PP2A immunoprecipitated, as detected and quantified by western blot analysis of each treatment group.
# In order to determine if FTY720 induced activation of PP2A enzyme in CD19^+ B cells from CLL patients were treated with 10 uM FTY720 for 0, 1, 2, 3, 4 and 15 hrs and the PP2A activity in the lysates were quantified using a functional assay following immunoprecipitation of PP2A enzyme. As reported previously in other systems, FTY720 induced a consistent 2-3 fold increase in PP2A activation with the peak response observed at 4 hour post treatment (FIG. 6a). […] Similar phenomenon was also observed in Ramos B cell line. FTY720 induced activation of PP2A in Ramos cell line as early as 3 hours and this induced PP2A activity was inhibited by okadaic acid (FIG. 7a-b).
# Cyclin D1 [4] = experiment: Western blot of Cyclin D1 in Mino cell line; format: cell-based, Human
# Experimental: as §1, §2
# [5] = test system: PARP, Caspase 3, caspase 8 and caspase 9; experiment: Western blot of PARP and caspases 3, 8, 9 in CLL cells; format: cell-based, Human
# Experimental: Western blotting. Immunoblot assays were performed as described previously.(34) Cell lysates were prepared and quantified by the bicin choninic acid (BCA) method (Pierce, Rockford, Ill.). Lysates with 50 μg of total protein were separated using 10% sodium dodecyl sulfate-polyacrylamide-gel electrophoresis, and transferred to 0.2 μm nitrocellulose membranes (Schleicher & Schuell, Keene, N.H.). The blots were probed with indicated primary antibodies followed by Horseradish peroxidase (HRP)-conjugated goat anti-rabbit IgG or goat anti-mouse IgG (Bio-Rad Laboratories, Richmond, Calif.). Detection was made with chemiluminescent substrate (SuperSignal, Pierce Inc. Rockford, Ill.). The PARP (Ab-2) and Caspase 9 antibodies were purchased from Oncogene/Calbiochem/EMD Biosciences (San Diego, Calif.). The Caspase 3 (AR-14 caspase 3/cpp32 and caspase 8 (AR-18) antibodies were kind gift from Dr. John Reed (Burnham Institute, La Jolla, Calif.).
# FTY720 induced apoptosis in CLL cells is not dependent on activation of caspases, the cysteine proteases of CED3/ICE family Several therapeutic agents such as glucocorticoids and chemotherapeutic agents such as fludarabine, chlorambucil and 2-chloro-2-deoxyadenosine induce cellular cytotoxicity in CLL cells through activation of caspases, the cysteine proteases of CED3/ICE family. […]
smiles,measurement,setting,value
"CCCCCCCCc1ccc(CCC(N)(CO)CO)cc1.Cl [FTY720, 2-Amino-2-[2-(4-octylphenyl)ethyl]propane 1,3-diol hydrochloride]",cell cycle arrest in AML cell lines,AML cell lines [1],does not cause cell cycle arrest
same,down-regulation of Cyclin D1 protein,Cyclin D1 [2]; 8 hrs post treatment,35%
same,down-regulation of Cyclin D1 protein,Cyclin D1 [2]; 24 hrs,70%
same,apoptosis in AML cell lines,AML cell lines [3],induces apoptosis
same,increase in PP2A activation,PP2A,2-3 fold
same,time of peak PP2A response,PP2A,4 h
same,reduction in Cyclin D1,Cyclin D1 [4],pronounced inhibition seen as early as 24 hrs
same,PARP cleavage,"[5]; 24 and 48 hours post treatment, CLL cells",failed to reveal PARP cleavage
same,"caspases 3, 8 and 9 activation",[5]; FTY720 treated CLL cells,remained in precursor forms
